Experimental data: patent US8097656B2, “Nitrogenated trans-stilbene analogs, method for the obtention and medical applications thereof” (Dominion Pharmakine S.L, priority 2005, dated 2012)
Entries after “also recorded” stand apart in the source; their conditions may differ.

Experiments:
MB16 cells [1] = assay: MB16 cell adhesion to immobilized VCAM-1 substrates (H2O2-treated); assay type: cell-based, murine; settings: 2.5 μM preincubation; 10 μM H2O2
Protocol: MB16 and MA375 cell adhesion to immobilized VCAM-1 substrates. The MB16 and MA375 cell adhesion tests were conducted on immobilized VCAM-1 substrates (2 μg/ml of recombinant human VCAM-1, R&D Systems, Minneapolis, Minn.) on 96-well plates. To avoid non-specific attachment to the plastic, 0.5% BSA dissolved in PBS was added to the wells for 2 hours at ambient temperature prior to conducting the adhesion test. The melanoma cells were preincubated with 2.5 μM of the compounds to be tested (azaresveratrol, see Table 2; JE1:2, JE2:1 and JE2:2 see FIG. 2; JEM2:2-01 and JEM2:1-02 see FIG. 7; YEF02, YEF03, YEF07, YEF05B, YEF07B and YEF05H. see FIG. 9) for 30 minutes, to which 10 μM of hydrogen peroxide or 10 ng/ml of IL-18 were added, respectively for a further 24 hours. Afterward, the cells were washed and marked with the BCECF-AM fluorescent probe (carboxyfluorescein, 2′,7′-bis-(2-carboxy-ethyl)-5-(6)carboxyfluorescein aminoxymethyl ester). Thirty minutes later, a washing process was performed to remove the excess fluorochromium, the number of viable cells being calculated by means of the trypan blue exclusion test and (5×10^4 cells/well) being added to the 96-well plate. The co-culture plates were incubator-incubated at 37° C. for 1 hours. The percentage of cellular adhesion was calculated by measuring the fluorescence emitted by the adhered cells (obtained after washing the plate) with regard to the fluorescence emitted by the total number of cells added. The results in the figures are given in values related to the adhesion percentages of the untreated melanoma cells.

MB16 cells [2] = assay: In vitro proliferation of MB16 cells treated with recombinant IL-18; assay type: cell-based, murine; settings: 2.5 μM pretreatment; 10 ng/ml IL-18; 48 h
Protocol: In vitro Melanoma cell proliferation test. The MB16 or MA375 cells are seeded (2500 cells/well/200 μl) in DMEM medium (Dulbecco's modified Eagle's medium) with 10% fetal bovine serum (FBS). Once adhered, they were washed to remove the FBS and fresh medium was added in the presence or absence of 2.5 μM of the compounds to be tested. In the experiments with MA375, the compound azaresveratrol (see Table 4) was used, and in the experiments with MB16 cells, the compounds azaresveratrol, JE1:2, JE2:1 or JE2:2 (see FIG. 3) were used. Thirty (30) minutes later, 10 ng/ml of IL-18 or HSC-conditioned media (murines in the case of B16 and human ones in the case of A375) were added to some wells, and the plates were incubated for 48 hours at 37° C. with 5% CO2 Upon completion of the incubation period, the cells were fixed with […] for 1 hours, were washed and were allowed to dry in the incubator at 50° C. for 30 minutes. In following, 100 μl/well of sulforhodamine 101 (0.4% p/v) was added and they were incubated at room temperature in the dark for 30 minutes. After washing, 200 μl/well of Tris base 10 mM pH 10.5 was added and the fluorescence was measured by means of a 530 nm, 620 nm emission excitation filter plate fluorescence reader. The number of cells was calculated by extrapolating said fluorescence data on a standard straight line previously obtained based on the fluorescence emitted in an increasing number of cells.

HSE cells [3] = assay: Hydrogen peroxide production from primary cultured HSE cells (DCFH-DA probe); assay type: cell-based, mouse; settings: 2.5 μM
Description: (§1) Isolation of primary murine cultures of hepatic sinusoidal endothelial (HSE) cells. The hepatic sinusoidal cells were isolated from C57BL/6J mice (males, aged 6-8 weeks) supplied by IFFA Credo (L'Arbreole, France), followed by a purification and identification of the HSE cells following the protocol described by Vidal-Vanaclocha et al. (1993) [Vidal-Vanaclocha, F., Rocha, M., Asumendi, A. & Barbera-Guillem, E. Isolation and enrichment of two sublobular compartment-specific endothelial cell subpopulations from liver sinusoids. Hepatology, 1993, 18, 328-339]. Stable primary cultures of HSE cells were obtained after seeding the cells on a type I collagen substrate (Sigma Chemicals Co, St Louis, Mo.), and the cultures were maintained in DMEM-HCO^3−, penicillin (100 U/ml), streptomycin (100 μg/ml), supplemented with 10% fetal bovine serum at 37° C. with 5% CO2 in atmosphere at 98% humidity.
(§2) Determination of hydrogen peroxide production from HSE and MB16 cells. Primary cultures of HSE cells were treated with 10 μg/ml of the DCFH-DA fluorescent probe for 30 minutes at 37° C. and were washed to eliminate the excess fluorochromium. Afterward, fresh culture medium was added thereto in the presence or absence of 2.5 μM of the compounds JE1:2, JE2:1 or JE2:2 and the production of H202 over the course of time was determined (see FIG. 5). The hydrogen peroxide produced by the cells oxidizes the probe, converting it into a fluorescent molecule. Thus, the cell fluorescence produced by the accumulation of DCF made it possible to detect the intracellular production of hydrogen peroxide. In each cell well, it was possible to determine the relative fluorescence value (arbitrary units of fluorescence brightness) in relation to the quantity of hydrogen peroxide produced at different incubation times. In the experiments with MB16 cells, once the cells had been marked with the DCFH-DA probe, they were incubated for 300 minutes with 2.5 μM of the azaresveratrol or JE2:2 compounds, 10 ng/ml of IL-18 (FIG. 4) then having been added.

MB16 cells [4] = assay: Hydrogen peroxide production from MB16 cells (DCFH-DA probe); assay type: cell-based, murine
Protocol: as §2

HSE cells [5] = assay: MB16 cell adhesion to HSE cells treated with MC-MB16; assay type: cell-based, mouse; settings: 2.5 μM prior to MC-MB16
Description: as §1
MB16 cell adhesion to the monolayer of HSE cells in culture. The endothelial cells were isolated 24 hours prior to the adhesion test and were seeded on 24-well plate, maintaining them a minimum of 4 hours in serum-free medium before incubating them with DMEM in the presence or not of MC-MB16 for 8 hours. The synthesized compounds (JE2:2 see FIG. 6; JEM2:2-01 and JEM2:1-02 see FIG. 8A; YEF02, YEF03, YEF07, YEF05B, YEF07B and YEF05H see FIG. 10) were added to a 2.5 μM concentration prior to the MC-MB16. On the other hand, the MB16 cells were marked with 40 μg/ml from the fluorescent probe BCECF-AM (carboxyfluorescein, 2′,7′-bis-(2-carboxy-ethyl)-5-(6)carboxyfluorescein aminoxymethyl ester) supplied by Molecular Probes Inc. (Oregon, USA). Afterward, a washing process was performed with DMEM-HCO3−—to remove the excess fluorochromium, the number of viable cells being calculated by means of the trypan blue exclusion test and resuspended to a concentration of 2×10^5 cells/ml. Lastly, 1 ml of the MB16 cell suspension was added to each well on the primary HSE cell culture plate. The co-culture plates were incubator-incubated at 37° C. for 8 minutes. The percentage of cellular adhesion was calculated by means of the a fluorescence measurement system described by Vidal-Vanaclocha et al. (1994) [Vidal-Vanaclocha, F., Amézaga, C., Asumendi, A., Kaplanski, G. & Dinarello, C. A. Interleukin-1 receptor blockade reduces the number and size of murine B16 melanoma hepatic metastases. Cancer Research, 1994, 54, 2667-2672]. In the experiments with IL-18, the MB16 cells were incubated with 10 ng/ml of IL-18 for 4 hours prior to being marked with BCECF-AM and were adhered to the HSE cell plate. The results in the figures are given as values related to the adhesion percentages of the untreated HSE cells.

PGE2 = assay: EIA of PGE2 in supernatant of VEGF-treated HSE cells (evidence of cyclooxygenase-2 activity); assay type: cell-based, mouse; settings: 1, 2.5 and 10 μM; 10 ng/ml VEGF for 4 hours
Protocol: PGE2 determination in HSE cell supernatants (see FIG. 11). Primary cultured HSE cells were incubated in the presence or absence of increasing concentrations (1, 2.5 and 10 μM) of the compounds JE2:2, YEF07 and YEF05B for 30 minutes. In following, 10 ng/ml of recombinant murine VEGF or the same volume of saline solution was added, 4 hours after which supernatants were collected and the PGE2 concentration determined by enzymatic immunoassay (EIA) supplied by Amersham Biosciences (Uppsala, Sweden).

[6] = Water solubility (statement); assay type: physicochemical
MB16 cells [7] = assay: MB16 hepatic metastasis test after intrasplenic injection; assay type: in vivo, C57BL/6J mice; settings: JE2:2 intraperitoneal 2.5 mg/kg, 1 hour prior and days 2, 3, 4, 8, 9, 10, 11; day 12; vs PBS; P<0.01
TNF-alpha = assay: ELISA of TNF-alpha in supernatant of MC-MB16-treated HSE cells; assay type: cell-based, mouse; settings: 2.5 μM for 30 minutes before MC-MB16; 8 hours
Protocol: ELISA determination of the TNF-alpha concentration in the supernatant from MC-MB16-treated HSE cells. Primary cultured HSE cells were incubated in the presence or absence of 2.5 μM of the synthesized compounds (JEM2:2-01 and JEM2:1-02 see FIG. 8B) for 30 minutes, after which MB16-conditioned media were added. Eight (8) hours later, the supernatant from cultured endothelial cells were collected, filtered through 0.22 μm membranes and the concentration of TNF-alpha was then assayed using the ELISA test (R&D Systems).

Row | Compound | Increase in H2O2-treated MB16 cell adhesion to immobilized VCAM-1 (in words) (MB16 cells [1]) | Increase in the number of MB16 cells by IL-18 (proliferation, in words) (MB16 cells [2]) | Endothelial (HSE) production of H2O2 (in words) (HSE cells [3]) | Increase in adhesion of MB16 cells to HSE activated by MC-MB16 / proadhesive response of HSE (in words) (HSE cells [5]) | Increase in endothelial secretion of PGE2 after VEGF (in words) (PGE2) | other results
1 | COC(=O)c1[nH]c(-c2ccc(O)cc2)cc1-c1cc(O)cc(O)c1 [JE1:2, 3-(3,5-Dihydroxyphenyl)-5-(4-hydroxyphenyl)-1H-pyrrole-2-methyl carboxylate] | significantly (P<0.01) inhibits | reduced said increase | inhibitory effect | – | – | –
2 | COC(=O)c1[nH]c(-c2cc(O)cc(O)c2)cc1-c1ccc(O)cc1 [JE2:1, 5-(3,5-Dihydroxyphenyl)-3-(4-hydroxyphenyl)-1H-pyrrole-2-methyl carboxylate] | significantly (P<0.01) inhibits | reduced said increase | inhibitory effect | – | – | –
3 | COC(=O)c1[nH]c(-c2cc(O)cc(O)c2)cc1-c1cc(O)cc(O)c1 [JE2:2, 3,5-bis(3,5-Dihydroxyphenyl)-1H-pyrrole-2-methyl carboxylate] | significantly (P<0.01) inhibits; also recorded: greatest inhibitory effect | reduced said increase; also recorded: most highly effective | inhibited | significantly (P<0.01) reduced | significantly inhibited; also recorded: dose-response | Increase of H2O2 production of MB16 cells in response to IL-18 (in words) (MB16 cells [4]; 2.5 μM prior to IL-18): completely abrogated; H2O2 production of MB16 cells in basal conditions (in words) (MB16 cells [4]; 2.5 μM, no IL-18): inhibited; Water solubility (in words) [6]: highly water-soluble; Reduction of the mean density of hepatic metastasis (MB16 cells [7]): 87%; Reduction of the volume occupied by metastatic tissue (MB16 cells [7]): 90%
4 | COC(=O)c1[nH]c(-c2cc(OC)cc(OC)c2)cc1-c1cc(OC)cc(OC)c1 [JEM2:2-01, 3,5-bis(3,5-Dimethoxyphenyl)-1H-pyrrole-2-methyl carboxylate] | completely abrogated | – | – | significantly (P<0.01) reduced; also recorded: greater inhibition | – | Endothelial production of TNF-alpha induced by MC-MB16 (in words) (TNF-alpha): inhibits
5 | COc1cc(OC)cc(-c2cc3c(OC)cc(OC)cc3n2C(=O)OC(C)(C)C)c1 [YEF05B, 4,6-Dimethoxy-2-(3,5-dimethoxyphenyl)-1H-indole-1-tert-butyl carboxylate] | significantly (P<0.01) inhibited | – | – | significantly (P<0.01) reduced | significantly inhibited | –
6 | Oc1ccc(O)c(-c2cc3c(O)cc(O)cc3[nH]2)c1 [YEF05H, 2-(2,5-Dihydroxyphenyl)-1H-indole-4,6-diol] | significantly (P<0.01) inhibited | – | – | significantly (P<0.01) reduced | – | –
7 | COc1cc(OC)cc(-c2cc3c(OC)cc(OC)cc3[nH]2)c1 [YEF07, 4,6-Dimethoxy-2-(3,5-dimethoxyphenyl)-1H-indole] | significantly (P<0.01) inhibited | – | – | significantly (P<0.01) reduced | significantly inhibited | –
8 | COc1ccc(OC)c(-c2cc3c(OC)cc(OC)cc3n2C(=O)OC(C)(C)C)c1 [YEF07B, 4,6-Dimethoxy-2-(2,5-dimethoxyphenyl)-1H-indole-1-tert-butyl carboxylate] | significantly (P<0.01) inhibited | – | – | significantly (P<0.01) reduced | – | –
